Consider one compound from patent publication US20130150346A1, “Use of FAAH Inhibitors for Treating Parkinson's Disease and Restless Legs Syndrome” (Ironwood Pharmaceutical, Inc., priority 2010, published 2013).

Each structure is given as a SMILES string.

Experiment [1] concerns FAAH. As to the kind of experiment: Plasma FAAH substrate levels (AEA, OEA, PEA) by LC-MS/MS in MPTP-lesioned marmosets treated with URB597. Format: in vivo, common marmosets (Callithrix jacchus). How it is done: (§1) Six common marmosets (Callithrix jacchus; female; weight, 350-500 g (Harlan, Madison, Wis., USA)) were kept under conditions of controlled temperature (25±2° C.) and a 12-hour light/dark cycle (lights on 6:30 a.m.). Animals were group housed and had access to food, fresh-fruit supplements and water ad libitum and their home cage environment was enriched with primate toys, perches and auditory stimuli. Prior to start of studies, animals were acclimatized to handling, blood collection and administration of treatments (oral syringe feeding and subcutaneous injection) as well as transfer to observation cages for assessment of behavior. A parkinsonian syndrome was induced by once-daily subcutaneous administration of MPTP hydrochloride (Sigma, Canada; 2 mg/kg base concentration in 0.9% saline) for 5 consecutive days. Following this, animals were allowed to recover for 12 weeks to allow parkinsonian symptoms to develop and stabilize. […] Treatment-related complications including dyskinesia and psychosis-like behaviors were evoked by twice-daily treatment with L-DOPA p.o. (as Prolopa®, Roche Canada, Ontario, equivalent to 15 mg/kg L-DOPA and 3.5 mg/kg benserazide) for a minimum of 30 days. […] Disord. 21:839-846; Visanji et al. (2008) Mov. Disord. 23:1922-1925; Visanji et al (2009) Neurobiol Dis. 35: 184-192]. After this time, the animals were used in several studies to evaluate potential anti-parkinsonian and anti-dyskinetic agents. A minimum period of two weeks was allowed between completing any prior study and commencing this study, a period in excess of ten half-lives since administration of any previously employed experimental drug. Throughout the course of the study, on days not requiring plasma sampling or behavioral observations, animals were treated once daily with oral L-DOPA therapy, given at 10:00 a.m. to maintain stable levels of complications. Marmosets treated with MPTP as described in this example are referred to as MPTP-lesioned marmosets.
(§2) MPTP hydrochloride (Sigma, Canada) was dissolved in 0.9% NaCl sterile solution to a concentration of 0.2 mg/ml (freebase) and administered at 1 ml/kg. Maintenance L-DOPA, administered as Prolopa® capsules (Roche, Mississauga, ON, Canada) containing 50 mg L-DOPA and 12.5 mg benserazide (freebase) was dissolved in Gatorade sports beverage (The Gatorade Company, Chicago, Ill.) prior to oral administration by syringe at a volume of 10 ml/kg. On days of behavioral assessment, L-DOPA (20 mg/kg, freebase) was prepared from the methyl ester form (Sigma, Canada) in combination with benserazide hydrochloride (5 mg/kg, freebase, Sigma, Canada) dissolved in 0.9% sterile saline containing 0.1% ascorbate (Sigma, Canada) and 0.05% absolute ethanol. URB597 (Cayman Chemical, Ann Arbor, Mich.) was formulated in a vehicle containing 50% corn oil (Professional Compounding Centers of America (PCCA), Houston, Tex.) and 50% nutritional drink Ensure™ (Abbott Nutrition, Chicago, Ill.) to make the suspension palatable for marmoset oral dosing. Requisite amounts of URB597 were weighed into sterile 50 ml polypropylene tubes (for the 3, 10, 30 and 60 mg/kg doses, 12, 40, 120 and 240 mg were weighed respectively). Then, 10 ml Corn oil was added and mixed until homogenous. Next, 10 ml Ensure™ was added and the mixture mixed gently at first, vortexed and finally sonicated (Ultrasonic Dismembrator, Fisher Scientific model 100, ⅛″) on a medium setting for 30 sec to ensure homogeneity of the suspension. URB597 or vehicle was dosed orally at a volume of 5 ml/kg body weight.
The effect of oral treatment of MPTP-lesioned marmosets with either vehicle or URB597 (3, 10, 30 or 60 mg/kg) on plasma levels of specific endogenous FAAH substrates was assessed. Levels of the endocannabinoid AEA, in addition to the non-cannabinoid fatty acid amides N-palmitoyl-ethanolamide (PEA) and N-oleoyl-ethanolamide (OEA), were measured by LC-MS/MS assays (described below).

Experiment [2] deals with MPTP-lesioned marmosets. Nature of the experiment: Rating of parkinsonian disability, dyskinesia and psychosis in MPTP-lesioned marmosets. Type of experiment: in vivo, common marmosets (Callithrix jacchus). As for the experimental part:
as §1
To assess the effect of treatment on plasma FAAH substrate level, total activity, high activity time and count, data were analyzed using a parametric repeated-measures (RM) 1-way analysis of variance (ANOVA) followed by a Student Newman-Keuls Multiple Comparison post hoc test. To assess the effect of treatment on plasma L-DOPA level a paired, two-tailed t-test was used. All FAAH (AEA, OEA, PEA) subbstrate and L-DOPA plasma level data and activity data are presented as the group mean and SEM For measures of parkinsonian disability, dyskinesia and psychosis, data were analyzed via Friedman's test with Dunn's Multiple Comparison post hoc test. […] In all cases, p<0.05 was taken to represent a significant difference.
as §2, with “homogenous.” for “homogenous. Next, 10 ml Ensure™ was added and the mixture mixed gently at first, vortexed and finally sonicated (Ultrasonic Dismembrator, Fisher Scientific model 100, ⅛″) on a medium setting for 30 sec to ensure homogeneity of the suspension. URB597 or vehicle was dosed orally at a volume of 5 ml/kg body weight.”

[3] abbreviates: URB597 10 mg/kg p.o. (two doses), four hours after oral administration, mean±SEM, n=6.
Setting [4] is: mean of the 4 doses studied (3, 10, 30, 60 mg/kg p.o.) ±SEM.
[5] abbreviates: URB597 10 mg/kg p.o. + L-DOPA 20 mg/kg s.c., 2-4 h, p>0.05 cf. L-DOPA alone.

As for `NC(=O)c1cccc(-c2cccc(OC(=O)NC3CCCCC3)c2)c1` [URB597], in experiment [1] (setting [3]), the “mean plasma level of AEA” value was determined as 5.0 ± 0.45 ng/mL, the “mean plasma level of OEA” value was determined as 7.7 ± 0.78 ng/mL and the “mean plasma level of PEA” value was 7.0 ± 0.27 ng/mL. Also, the “FAAH inhibition suggested by fatty acid amide elevations (no dose response)” value in experiment [1] (all four doses 3 mg/kg to 60 mg/kg p.o.) was “complete inhibition of FAAH at all dose levels studied”. Further, in experiment [1] (setting [4]), the “mean fold change of plasma AEA compared to vehicle treatment” value came to 10.3±0.3 fold, the “mean fold change of plasma OEA compared to vehicle treatment” value stood at 7.8±0.2 fold and the “mean fold change of plasma PEA compared to vehicle treatment” value is 1.8±0.1 fold. For the same compound, in experiment [2] (URB597 10 mg/kg p.o. + L-DOPA 20 mg/kg s.c., 2-4 h), the level of psychosis entry is listed as “mild to moderate”. For the same compound, in experiment [2] (setting [5]), the “effect of URB597 on L-DOPA-induced dyskinesia” value is “did not modify”, the “effect of URB597 on L-DOPA-induced psychosis” value is “did not modify” and the “effect of URB597 on anti-parkinsonian actions of L-DOPA” value was “did not modify”. Further, the “dyskinesia score (median)” value in experiment [2] (URB597 10 mg/kg p.o. + L-DOPA 20 mg/kg s.c., summed 2-4 h, IQR 13-29, n=6) is given as 18. Further, the “parkinsonian disability score (median)” value in experiment [2] (URB597 10 mg/kg p.o. + L-DOPA 20 mg/kg s.c., summed 2-4 h, maximum 432, IQR 65-114, n=6) was determined as 78. Also, the “effect on parkinsonian disability, dyskinesia or psychosis cf. vehicle” value in experiment [2] (URB597 10 mg/kg p.o. given alone (vehicle s.c.), p>0.05) is recorded as “did not modify”.
